Counter-ions that a name gives are not always drawn.
Assays:
Type in all cases: biochemical
[1] = test system: Human plasma; experiment: Human plasma anticoagulation, activated partial thromboplastin time (APTT); settings: concentration required to double the clotting time
Procedure: (§1) Dog plasma and rat plasma is obtained from conscious mixed-breed hounds (either sex, Hazelton-LRE, Kalamazoo, Mich., U.S.A.) or from anesthetized male Sprague-Dawley rats (Harlan Sprague-Dawley, Inc., Indianapolis, Ind., U.S.A.) by venipuncture into 3.8 percent citrate. Fibrinogen is prepared from in-date ACD human blood as the fraction I-2 according to previous procedures and specifications. […] Human fibrinogen is also purchased as 98 percent pure/plasmin free from American Diagnostica, Greenwich, Conn. Coagulation reagents ACTIN, Thromboplastin, and Human plasma are from Baxter Healthcare Corp., Dade Division, Miami, Fla. Bovine thrombin from Parke-Davis ([…], Mich.) is used for coagulation assays in plasma.
(§2) Coagulation assay procedures are as previously described. […] A CoAScreener coagulation instrument (American LABor, Inc.) is used for all coagulation assay measurements. The prothrombin time (PT) is measured by adding 0.05 mL saline and 0.05 mL Thromboplastin-C reagent to 0.05 mL test plasma. The activated partial thromboplastin time (APTT) is measured by incubation of 0.05 mL test plasma with 0.05 mL Actin reagent for 120 seconds followed by 0.05 mL CaCl2 (0.02M). The thrombin time (TT) is measured by adding 0.05 mL saline and 0.05 mL thrombin (10 NIH units/mL) to 0.05 mL test plasma. The compounds of Formula I are added to human or animal plasma over a wide range of concentrations to determine prolongation effects on the APTT, PT, and TT assays. Linear extrapolations are performed to estimate the concentrations required to double the clotting time for each assay.

[2] = biological target: T1, Bovine trypsin (Bos taurus, UniProt P00760); experiment: Kass for trypsin, chromogenic substrate
T1 construct: Bovine trypsin is purchased from Worthington Biochemicals, Freehold, N.J; purchased Worthington Biochemicals, Freehold, N.J
T1 sequence (P00760 24-246): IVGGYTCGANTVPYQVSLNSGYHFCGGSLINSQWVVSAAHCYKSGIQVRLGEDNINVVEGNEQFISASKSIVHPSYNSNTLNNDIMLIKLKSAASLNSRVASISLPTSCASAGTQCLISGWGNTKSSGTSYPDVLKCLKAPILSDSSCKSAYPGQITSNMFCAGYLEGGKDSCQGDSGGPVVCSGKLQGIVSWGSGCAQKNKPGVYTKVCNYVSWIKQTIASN
Procedure: (§3) By substantially following the procedures described above for human thrombin, and using other human blood coagulation system serine proteases and proteases of the fibrinolytic system with the appropriate chromogenic substrates, identified below, selectivity of the compounds of the present invention with respect to the coagulation factor serine proteases and with respect to the fibrinolytic system serine proteases are evaluated as well as their substantial lack of interference with serine proteases of the fibrinolytic system. […] This would be important to the therapeutic use of such agents as an adjunct to streptokinase, t-PA or urokinase thrombolytic therapy and to the use of such agents as an endogenous fibrinolysis-sparing (with respect to t-PA and urokinase) antithrombotic agent. In addition to the lack of interference with the amidase activity of the fibrinolytic proteases, such fibrinolytic system sparing can be studied by the use of human plasma clots and their lysis by the respective fibrinolytic plasminogen activators.
Chromogenic substrates: N-Benzoyl-Ile-Glu-Gly-Arg-p-nitroanilide (for factor Xa); N-Cbz-D-Arg-Gly-Arg-p-nitroanilide (for factor IXa assay as the factor Xa substrate); Pyroglutamyl-Pro-Arg-p-nitroanilide (for Factor XIa and for aPC); H-D-Pro-Phe-Arg-p-nitroanilide (for factor XIIa); and Pyroglutamyl-Gly-Arg-p-nitroanilide (for urokinase); are purchased from KabiVitrnm, Stockholm, Sweden, or from Midwest Biotech, Fishers, Ind. Bovine trypsin is purchased from Worthington Biochemicals, Freehold, N.J., and human plasma kallikrein from Kabi Vitrum, Stockholm, Sweden. Chromogenic substrate H-D-Pro-Phe-Arg-p-nitroanilide for plasma kallikrein is purchased from Kabi Vitrum, Stockholm, Sweden. N-Benzoyl-Phe-Val-Arg-p-nitroanilide, the substrate for human thrombin and for trypsin, is synthesized according to procedures described above for the compounds of the present invention, using known methods of peptide coupling from commercially available reactants or purchased from Midwest Biotech, Fishers, Ind.

[3] = test system: Human plasma; experiment: Human plasma anticoagulation, thrombin time (TT); settings: concentration required to double the clotting time
Procedure: as §1, §2

[4] = biological target: T2, t-PA (Homo sapiens, UniProt P00750); experiment: Kass for t-PA, chromogenic substrate
T2 construct: purchased American Diagnostica, Greenwich, Conn
T2 sequence (P00750 36-562): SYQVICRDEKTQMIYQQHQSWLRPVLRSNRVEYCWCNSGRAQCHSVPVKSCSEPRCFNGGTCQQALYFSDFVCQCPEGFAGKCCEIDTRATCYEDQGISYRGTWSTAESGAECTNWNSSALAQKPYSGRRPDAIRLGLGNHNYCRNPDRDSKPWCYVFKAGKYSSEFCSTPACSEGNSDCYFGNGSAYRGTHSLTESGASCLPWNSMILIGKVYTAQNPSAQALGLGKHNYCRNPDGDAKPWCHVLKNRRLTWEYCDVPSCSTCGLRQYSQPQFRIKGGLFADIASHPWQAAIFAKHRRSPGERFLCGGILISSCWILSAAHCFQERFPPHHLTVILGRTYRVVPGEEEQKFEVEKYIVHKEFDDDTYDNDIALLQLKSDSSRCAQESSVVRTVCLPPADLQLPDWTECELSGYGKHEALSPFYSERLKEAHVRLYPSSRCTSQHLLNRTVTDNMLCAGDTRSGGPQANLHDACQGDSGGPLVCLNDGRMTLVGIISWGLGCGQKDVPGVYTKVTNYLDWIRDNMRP
Procedure: as §3

[5] = test system: Human plasma; experiment: Human plasma anticoagulation, prothrombin time (PT); settings: concentration required to double the clotting time
Procedure: as §1, §2

Compound | 2x Clotting time APTT [1] | Kass Trypsin [2] | 2x Clotting time TT [3] | Kass t-PA [4] | 2x Clotting time PT [5]
N=C(N)c1ccc(CNC(=O)[C@@H]2C[C@@H]3CCCC[C@@H]3N2C(=O)[C@H]2C[C@H]3CCCC[C@H]3CN2)cc1 (relative stereo) [Example 43, D-3-Piq-cis-Ohi-p-NHCH2 C6 H4 C(NH)NH2.2HCl] | 1,100 ng/mL | 100. × 10^6 (L/mole) | 280 ng/mL | 0.01 × 10^6 (L/mole) | 930 ng/mL
CCS(=O)(=O)N[C@H](Cc1ccccc1)C(=O)N1CCC[C@H]1C(=O)NCc1ccc(NC(=N)N)cc1 [Example 34, EtSO2 -D-Phe-Pro-p-NHCH2 C6 H4 NHC(NH)NH2.HCl] | 4,900 ng/mL |  | 530 ng/mL | 0.01 × 10^6 (L/mole) | 5,500 ng/mL
N=C(N)c1ccc(CNC(=O)[C@@H]2C[C@@H]3CCCC[C@@H]3N2C(=O)[C@@H](Cc2ccccc2)NCC(=O)O)cc1 (relative stereo) [Example 47, HOOCCH2 -D-Phe-cis-Ohi-p-NHCH2 C6 H4 C(NH)NH2.HCl] | 140 ng/mL | 82. × 10^6 (L/mole) | 12. ng/mL | 0.01 × 10^6 (L/mole) | 270 ng/mL
N=C(N)c1ccc(CNC(=O)[C@@H]2CCCN2C(=O)[C@@H](CC2CCCCC2)NCC(=O)O)cc1 [Example 48, HOOCCH2 -D-Cha-Pro-p-NHCH2 C6 H4 C(NH)NH2.HCl] | 33 ng/mL | 250. × 10^6 (L/mole) | 2. ng/mL |  | 59 ng/mL
N=C(N)c1ccc(CNC(=O)[C@@H]2CCCN2C(=O)[C@@H](CC2CCCCC2)NCC(=O)O)c(F)c1 [Example 71, HO2 CCH2 -D-Cha-Pro-4-NHCH2 -3-F-benzamidine.HCl] | 89 ng/mL | 240. × 10^6 (L/mole) | 1 ng/mL |  | 150 ng/mL
N=C(N)c1ccc(CNC(=O)[C@@H]2CCCN2C(=O)[C@@H](CC2CCCCC2)NCCC(=O)O)cc1 [Example 52, HOOCCH2 CH2 -D-Cha-Pro-p-NHCH2 C6 H4 C(NH)NH2.HCl] | 80 ng/mL | 47. × 10^6 (L/mole) | 6 ng/mL | 0.01 × 10^6 (L/mole) | 170 ng/mL
N=C(N)c1cccc(CNC(=O)[C@@H]2CCCN2C(=O)[C@@H]2NCC[C@@H]3CCCC[C@@H]32)c1 [Example 25, D-1-Piq-Pro-m-NHCH2 -C6 H4 C(=NH)NH2.HCl] | 34,600 ng/mL |  | 1,430 ng/mL | 0.01 × 10^6 (L/mole) | 40,400 ng/mL
N=C(N)c1ccc(CCCNC(=O)[C@@H]2CCCN2C(=O)[C@@H]2NCC[C@@H]3CCCC[C@@H]32)cc1 [Example 32, 1-Piq-Pro-p-NHCH2 CH2 CH2 -C6 H4 C(=NH)NH2.HCl] | 28,500 ng/mL |  | 3,100 ng/mL | 0.01 × 10^6 (L/mole) | 47,800 ng/mL
CCS(=O)(=O)N[C@H](Cc1ccccc1)C(=O)N1[C@H](C(=O)NCc2ccc(C(=N)N)cc2)C[C@@H]2CCCC[C@@H]21 (relative stereo) [Example 45, EtSO2 -Phe-cis-Ohi-p-NHCH2 C6 H4 C(NH)NH2.HCl] | 200 ng/mL | 110. × 10^6 (L/mole) | 8 ng/mL |  | 330 ng/mL
N=C(N)c1ccc(CNC(=O)[C@@H]2CCCN2C(=O)[C@H](N)CC2CCCCC2)cc1 [Example 51, D-Cha-Pro-p-NHCH2 C6 H4 C(NH)NH2.2HCl] | 48 ng/mL | 27. × 10^6 (L/mole) | 2 ng/mL | 0.01 × 10^6 (L/mole) | 110 ng/mL
N=C(N)c1ccc(CNC(=O)[C@@H]2CCCN2C(=O)[C@@H](CC2CCCCC2)NCC(=O)O)nc1 [Example 66, HO2 CCH2 -D-Cha-Pro-2-NHCH2 -5-amidinopyridine.HCl] | 180 ng/mL |  | 7.9 ng/mL |  | 270 ng/mL
CCS(=O)(=O)N[C@H](CC1CCCCC1)C(=O)N1CCC[C@H]1C(=O)NCc1ccc(C(=N)N)cc1 [Example 80, EtSO2 -D-Cha-Pro-4-NHCH2 C6 H4 C(NH)NH2.HCl] | 40 ng/mL | 90. × 10^6 (L/mole) | 4 ng/mL |  | 130 ng/mL
N=C(N)NCCCCCNC(=O)[C@@H]1CCCN1C(=O)[C@H](N)Cc1ccccc1 [Example 6, D-Phe-Pro-NH(CH2)5 NHC(NH)NH2.HCl] |  |  | 390 ng/mL | < 0.001 | 
N=C(N)c1ccc(CNC(=O)[C@@H]2CCCN2C(=O)[C@@H](CCC2CCCCC2)NCC(=O)O)cc1 [Example 88, HOOCCH2 -D-hCha-Pro-p-NHCH2 C6 H4 C(NH)NH2.HCl] | 100 ng/mL |  | 4 ng/mL |  | 200 ng/mL
N=C(N)c1ccc(CNC(=O)[C@@H]2C[C@@H]3CCCC[C@@H]3N2C(=O)[C@H]2CCCCN2)cc1 [Example 20, D-hPro-Ohi-p-NHCH2 C6 H4 C(NH)NH2.3HCl] | 550 ng/mL |  | 62 ng/mL |  | 600 ng/mL
N=C(N)c1ccc(CNC(=O)[C@@H]2C[C@@H]3CCCC[C@@H]3N2C(=O)[C@@H](CC2CCCCC2)NCC(=O)O)cc1 (relative stereo) [Example 49, HOOCCH2 -D-Cha-cis-Ohi-p-NHCH2 C6 H4 C(NH)NH2.HCl] | 130 ng/mL | 940. × 10^6 (L/mole) | 5 ng/mL |  | 130 ng/mL
N=C(N)c1ccc(CNC(=O)[C@@H]2CCCN2C(=O)[C@@H](CC2CCCCC2)NCCCC(=O)O)cc1 [Example 85, HOOCCH2 CH2 CH2 -D-Cha-Pro-p-NHCH2 C6 H4 C(NH)NH2.HCl] | 100 ng/mL |  | 4.9 ng/mL |  | 197 ng/mL
N=C(N)c1cccc(CCNC(=O)[C@@H]2CCCN2C(=O)[C@@H]2NCC[C@@H]3CCCC[C@@H]32)c1 [Example 29, 1-Piq-Pro-m-NHCH2 CH2 -C6 H4 C(=NH)NH2.2HCl] | 9,800 ng/mL |  | 750 ng/mL |  | 15,800 ng/mL
HOOCCH2 -D-Phe-Pro-p-NHCH2 C6 H4 C(NH)NH2.HCl [Example 46] | 67 ng/mL | 48. | 2. ng/mL | 0.01 | 77 ng/mL
CS(=O)(=O)CC(=O)N[C@H](CC1CCCCC1)C(=O)N1CCC[C@H]1C(=O)NCc1ccc(C(=N)N)cc1 [Example 92, MeSO2 CH2 CO-D-Cha-Pro-p-NHCH2 C6 H4 C(NH)NH2.HCl] | 210 ng/mL |  | 8.9 ng/mL |  | 340 ng/mL
N=C(N)c1ccc(CNC(=O)CN(CCc2ccccc2)C(=O)CNCC(=O)O)cc1 [Example 89, HOOCCH2 -Gly-N-C6 H5 CH2 CH2 Gly-p-NHCH2 C6 H4 C(NH)NH2.HCl] | 51,000 ng/mL |  | 570 ng/mL |  | 37,000 ng/mL
